Experimental data published in patent US20180214400A1, “THE USE OF KAURANES COMPOUNDS IN THE MANUFACTURE OF MEDICAMENT FOR TREATMENT OF CADIAC HYPERTROPY AND PULMONARY HYPERTENSION” (KEY-PHARMA BIOMEDICAL INC., priority 2015, published 2018).

Legend:
TAC-exposed rats = assay: ECG alterations induced by TAC; format: in vivo; conditions: for QT dispersion and QTc dispersion increase induced by TAC: TAC after 9 weeks; for QRS duration and R amplitude: TAC at 9 weeks
TAC rats [1] = assay: TAC-induced cardiac hypertrophy and cardiomyocyte dilation in rats; format: in vivo, Wistar rats; conditions: for cardiac and myocyte hypertrophy: 3-week TAC groups; for increment of cardiomyocyte cross-sectional area: 3-week TAC; for HW / HW/BW: 3 wk TAC
Method: TAC between the innominate artery and the left carotid artery was conducted to induce pressure overload for 3 weeks (3-week TAC) or 9 weeks (9-week TAC). Sham control animals underwent the same operation, but without aortic constriction. All surgical procedures were performed with animals anesthetized with 3% pentobarbital sodium injected intraperitoneally (i.p. 40 mg/kg). During the surgery period, rats were intubated and ventilated with a rodent ventilator (Harvard Apparatus, Holliston, Mass., USA).
Both 3-week and 9-week TAC-exposed rats were randomly divided into five groups (n=8-10 rats) including a TAC vehicle control, COMPOUND A, low (TAC+COMPOUND A (L), 1 mg/kg/d), middle (TAC+COMPOUND A (M), 2 mg/kg/d), high (TAC+COMPOUND A (H), 8 mg/kg/d) dose group respectively, and sildenafil (TAC+Sil, 70 mg/kg/d) as a positive control group. Sham controls were all treated with vehicle. Acute and chronic mortality from the TAC procedure was <5%. The treat group was intra-gastric administrated with sodium salt of compound A which was solved in a mixture of saline and organic solvent of the same volume (1:1, 0.5 ml) and sildenafil which was solved in distilled water. All drugs and vehicle treatment were given twice a day after surgery for three days as designed. The animals were examined at 3 weeks and 9 weeks after surgery accordingly. At the end of the observation periods and after hemodynamic measurement in vivo, all animals were sacrificed and hearts were explanted for further Analyses.
Tissue sections of rat hearts were fixed in 10% neutral-buffered formalin, embedded in paraffin, cut into […] serial sections, and then stained with haematoxylin and eosin (H&E), picrosirius red or phalloidin. Nikon system and Zeiss confocal microscope were used to capture digital images. Stained with H&E was to evaluate cell size, stained with picrosirius red (sigma CA) was to test fibrosis using standard procedure and the amount of F-actin was stained with phalloidin. We determined cross sectional cell area and interstitial collagen fraction using computer-assisted image analysis (Image-Pro Plus software), with the observer blinded as to tissue source. At least four or five different hearts were quantified for analysis.
Adult Wistar rats were subjected to TAC for 3 weeks and treated with vehicle, COMPOUND A or sildenafil, respectively. […] The cardiac and myocyte hypertrophy were ameliorated by compound A or sildenafil in the 3-week TAC groups (Table 1).

TAC rats [2] = assay: Heart rate variability spectral analysis in TAC rats; format: in vivo; conditions: TAC for 9 weeks
Method: Three or nine weeks after TAC operation, rats were anesthetized with pentobarbital sodium (i.p. 40 mg/kg). The electrocardiogram (ECG) was measured using the II Einthoven lead. Three stainless steel 22G needle electrodes were localized in the insertion of the right (G1) and left (GND) front legs, and in the left (G2) rear leg. Accordingly, 10 min of ECG recordings were digitally acquired at 2 kHz prior to any maneuver. Heart rate variability-Spectral Analysis was performed using fast Fourier transformation. Oscillatory components were separated into very low frequency (VLF; <0.04 Hz), low frequency (LF; 0.04-0.6 Hz), or high frequency (HF; 0.6-2.5 Hz) bands. HRV components were expressed in normalized units (n.u.) as a percentage of total power minus the VLF component. Efferent vagal parasympathetic activity is a major contributor to the HF component and both sympathetic and vagal influences contribute to the LF component; thus the ratio of LF to HF is commonly utilized as a measure of sympathovagal balance. Parameters of the heart rate variability (HRV) are indicators for cardiac autonomic balance. […] This invention disclosed a novel used of compound A for restore cardiac autonomic balance by suppress elevated sympathetic activity, which sildenafil had no such effect.

TAC rats [3] = assay: Actin remodeling (FITC-phalloidin) and cardiac fibrosis (picrosirius red) in TAC rats; format: in vivo, Wistar rats; conditions: for level of myocardia F-actin (FITC-phalloidin staining): 9 weeks TAC, compound A 8 mg/kg/d, sildenafil 70 mg/kg/d; for reduction in interstitial fibrosis: 8 mg/kg/d
Method: TAC between the innominate artery and the left carotid artery was conducted to induce pressure overload for 3 weeks (3-week TAC) or 9 weeks (9-week TAC). Sham control animals underwent the same operation, but without aortic constriction. All surgical procedures were performed with animals anesthetized with 3% pentobarbital sodium injected intraperitoneally (i.p. 40 mg/kg). During the surgery period, rats were intubated and ventilated with a rodent ventilator (Harvard Apparatus, Holliston, Mass., USA). Both 3-week and 9-week TAC-exposed rats were randomly divided into five groups (n=8-10 rats) including a TAC vehicle control, COMPOUND A, low (TAC+COMPOUND A (L), 1 mg/kg/d), middle (TAC+COMPOUND A (M), 2 mg/kg/d), high (TAC+COMPOUND A (H), 8 mg/kg/d) dose group respectively, and sildenafil (TAC+Sil, 70 mg/kg/d) as a positive control group. Sham controls were all treated with vehicle. Acute and chronic mortality from the TAC procedure was <5%. The treat group was intra-gastric administrated with sodium salt of compound A which was solved in a mixture of saline and organic solvent of the same volume (1:1, 0.5 ml) and sildenafil which was solved in distilled water. All drugs and vehicle treatment were given twice a day after surgery for three days as designed. The animals were examined at 3 weeks and 9 weeks after surgery accordingly. At the end of the observation periods and after hemodynamic measurement in vivo, all animals were sacrificed and hearts were explanted for further Analyses. Tissue sections of rat hearts were fixed in 10% neutral-buffered formalin, embedded in paraffin, cut into […] serial sections, and then stained with haematoxylin and eosin (H&E), picrosirius red or phalloidin. Nikon system and Zeiss confocal microscope were used to capture digital images. Stained with H&E was to evaluate cell size, stained with picrosirius red (sigma CA) was to test fibrosis using standard procedure and the amount of F-actin was stained with phalloidin. We determined cross sectional cell area and interstitial collagen fraction using computer-assisted image analysis (Image-Pro Plus software), with the observer blinded as to tissue source. At least four or five different hearts were quantified for analysis. Some transcription factors important for hypertrophy influence actin dynamics, which is regulated by free G-actin and polymeric F-actin. A higher F-to-G actin content is an important result of the activation of hypertrophy pathways. The level of myocardia F-actin was measured by FITC-phalloidin staining. […] TAC increased the level of F actin, thus lead to actin dynamics. Both compound A and sildenafil can reduced the expression of F actin and maintain F/G actin balance. To determine whether compound A attenuates TAC-induced cardiac fibrosis, heart tissues were stained with picrosirius red to detect interstitial collagen distribution in left ventricular. In both 3-week and 9-week TAC groups, TAC induced significant interstitial fibrosis (P<0.05). The collagen content increased 5.7 fold and 7.5 fold in 3-week and 9-week TAC control groups, respectively, compared to sham control group.

[4] = comp. A (L) 1 mg/kg/d intra-gastric

SMILES | QT dispersion and QTc dispersion increase induced by TAC (TAC-exposed rats) | QRS duration and R amplitude (TAC-exposed rats) | cardiac and myocyte hypertrophy (TAC rats [1]) | increment of cardiomyocyte cross-sectional area (TAC rats [1]; 70 mg/kg) [%] | HW (TAC rats [1]; sildenafil 70 mg/kg/d) [g] | HW/BW (TAC rats [1]; sildenafil 70 mg/kg/d) [mg/g] | LF/HF ratio (TAC rats [2]) | level of myocardia F-actin (FITC-phalloidin staining) (TAC rats [3]) | inhibition effect on cardiac fibrosis compared to compound A (TAC rats [3]; TAC rats) | increment of cardiomyocyte cross-sectional area (TAC rats [1]; 1 mg/kg) [%] | increment of cardiomyocyte cross-sectional area (TAC rats [1]; 2 mg/kg) [%] | increase of cardiomyocyte cross-sectional area comparing to Sham rats (TAC rats [1]; 3 weeks TAC rats, dose not stated (TAC alone 76%)) [%] | HW (TAC rats [1]; [4]) [g] | HW/BW (TAC rats [1]; [4]) [mg/g] | reduction in interstitial fibrosis (TAC rats [3]; 3-week TAC) [%] | reduction in interstitial fibrosis (TAC rats [3]; 9-week TAC) [%]
CCCc1nn(C)c2c(=O)[nH]c(-c3cc(S(=O)(=O)N4CCN(C)CC4)ccc3OCC)nc12 [sildenafil, reference compound] | did not show similar protective effect | trended normal | ameliorated | 16.3 | 0.76 ± 0.04 | 2.86 ± 0.117 | did not reduce | returned to control conditions | less inhibition effect | – | – | – | – | – | – | –
C[C@@]12CC[C@@H]3[C@@](CC[C@H]4[C@@]3(C)CCC[C@@]4(C)C(=O)O)(CC1=O)C2 [Compound A, (4α,8β,13β)-13-methyl-16-oxo-17-norkauran-18-oic acid] | reversed such effects | trended normal | ameliorated | – | – | – | reversed to normal | returned to control conditions | – | 15.1 | 4.1 | 10 | 0.72 ± 0.03 | 2.862 ± 0.099 | 58.2 | 80.8
